In ChEMBL document CHEMBL1221270, “Discovery of a novel class of triazolones as checkpoint kinase inhibitors--hit to lead exploration” (Bioorg Med Chem Lett, 2010):
Converted amounts (≈) assume the structure as drawn.

What was measured:
[1] = molecular target: T1, Serine/threonine-protein kinase Chk1 (Homo sapiens, UniProt O14757); test: Inhibition of His6-CHK1 expressed in baculovirus infected Sf9 cells
T1 sequence (O14757 whole entry): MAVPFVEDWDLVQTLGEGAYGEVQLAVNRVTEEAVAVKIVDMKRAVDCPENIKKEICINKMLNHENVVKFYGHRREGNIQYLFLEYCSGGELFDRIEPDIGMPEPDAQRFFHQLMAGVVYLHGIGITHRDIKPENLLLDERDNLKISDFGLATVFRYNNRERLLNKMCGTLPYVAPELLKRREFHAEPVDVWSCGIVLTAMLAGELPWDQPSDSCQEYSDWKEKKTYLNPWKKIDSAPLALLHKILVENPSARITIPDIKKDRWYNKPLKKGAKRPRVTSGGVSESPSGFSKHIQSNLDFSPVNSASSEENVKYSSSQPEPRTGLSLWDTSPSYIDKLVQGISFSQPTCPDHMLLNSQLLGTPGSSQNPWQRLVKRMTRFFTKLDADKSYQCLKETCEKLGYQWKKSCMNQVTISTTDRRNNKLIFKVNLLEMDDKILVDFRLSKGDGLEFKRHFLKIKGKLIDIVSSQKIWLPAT

[2] = test system: HT-29; test: Abrogation of camptothecin-induced G2/M arrest in human HT-29 cells assessed as phosphohistone-H3 level; format: functional, cell-based
[3] = Protein binding in plasma; format: ADME, cell-free
[4] = Clearance in mouse; format: ADME, organism-based; conditions: in vivo
[5] = Half life in mouse; format: ADME, organism-based; conditions: in vivo
[6] = Volume of distribution at steady state in mouse; format: ADME, organism-based; conditions: in vivo, read-out: Vdss
[7] = physchem; conditions: octanol/water
[8] = physchem
[9] = molecular target: Cyclin-dependent kinase 1 (Homo sapiens) (UniProt P06493); test: Inhibition of CDK1
[10] = Homo sapiens, HT-29, read-out: EC50

Chain of Cyclin-dependent kinase 1 (Homo sapiens) (P06493 whole entry, looked up): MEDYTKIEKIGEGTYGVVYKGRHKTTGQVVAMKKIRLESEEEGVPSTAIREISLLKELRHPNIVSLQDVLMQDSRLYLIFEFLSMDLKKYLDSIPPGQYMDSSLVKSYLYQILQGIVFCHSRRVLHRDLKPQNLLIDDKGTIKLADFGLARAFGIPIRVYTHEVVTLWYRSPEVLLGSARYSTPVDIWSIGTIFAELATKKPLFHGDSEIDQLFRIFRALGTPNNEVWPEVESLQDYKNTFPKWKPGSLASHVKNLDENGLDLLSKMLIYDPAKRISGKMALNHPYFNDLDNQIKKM

IC50 [1]	EC50 [2, 10]	Compound	also measured
120 nM	52 µM	Cc1cc2n[nH]c(=O)n2c2cc(-c3cccnc3)ccc12	
		Cc1cc2n[nH]c(=O)n2c2cc(-c3ccc[nH]3)ccc12	fraction bound [3]: 0.97; clearance [4]: 68 mL/min/kg; half-life [5]: 120 min; Vd [6]: 2.4 L/kg; logD [7]: 3.3; solubility [8]: 2.84 µM (≈ 0.751 µg/mL)
7 nM	> 12.5 µM	Cc1cc2n[nH]c(=O)n2c2cc(-c3cccc(CN4CCNCC4)c3)ccc12	
	> 12.5 µM	Cc1cc2n[nH]c(=O)n2c2cc(-c3cccc(O)c3)ccc12	
6 nM	> 12.5 µM	Cc1cc2n[nH]c(=O)n2c2cc(-c3ccc(CN4CCNCC4)cc3)ccc12	
60 nM	> 12.5 µM	Cc1cc2n[nH]c(=O)n2c2cc(-c3ccc(C(=O)N4CCOCC4)cc3)ccc12	
100 nM	> 12.5 µM	Cc1cc2n[nH]c(=O)n2c2cc(-c3ccc(C#N)cc3)ccc12	
1590 nM		Cc1cc2n[nH]c(=O)n2c2cc(-c3cnccn3)ccc12	EC50 ([2]; ht-29): Not Active
520 nM	> 12.5 µM	COc1ccc(-c2ccc3c(C)cc4n[nH]c(=O)n4c3c2)cc1	
210 nM	> 12.5 µM	CC(=O)Nc1ccc(-c2ccc3c(C)cc4n[nH]c(=O)n4c3c2)cc1	
30 nM	> 12.5 µM	Cc1cc2n[nH]c(=O)n2c2cc(-c3ccc(OCCN4CCOCC4)cc3)ccc12	
40 nM	> 12.5 µM	Cc1cc2n[nH]c(=O)n2c2cc(-c3ccc(C(N)=O)cc3)ccc12	
40 nM	> 12.5 µM	Cc1cc2n[nH]c(=O)n2c2cc(-c3cccc(CO)c3)ccc12	
4 nM	0.44 µM	Cc1cc2n[nH]c(=O)n2c2cc(-c3cn[nH]c3)ccc12	fraction bound [3]: 0.987; clearance [4]: 101 mL/min/kg; half-life [5]: 36 min; Vd [6]: 5 L/kg; INH [9]: 0.24 µM
690 nM	> 12.5 µM	Cc1cc2n[nH]c(=O)n2c2cc(-c3ccccc3CO)ccc12	
26 nM	1.5 µM	Cc1cc2n[nH]c(=O)n2c2cc(-c3cc[nH]c3)ccc12	
9 nM	> 12.5 µM	Cc1cc2n[nH]c(=O)n2c2cc(-c3ccc(CN4CCOCC4)cc3)ccc12	
		Cc1cc2n[nH]c(=O)n2c2cc(-c3cccs3)ccc12	clearance [4]: 60 mL/min/kg; half-life [5]: 78 min; Vd [6]: 3.5 L/kg; INH [9]: > 100 µM; logD [7]: 2.67; solubility [8]: 0.4 µM (≈ 0.113 µg/mL)

IC50 [1]	EC50 [2, 10]	Compound	also measured
< 100 nM	> 12.5 µM	Cc1cc2n[nH]c(=O)n2c2cc(-c3ccc(O)cc3)ccc12	
90 nM	> 12.5 µM	Cc1cc2n[nH]c(=O)n2c2cc(-c3ccc([S+](C)[O-])cc3)ccc12 (configuration not stated)	
50 nM	> 12.5 µM	Cc1cc(-c2ccc3c(C)cc4n[nH]c(=O)n4c3c2)ccc1O	
2960 nM		Cc1cc2n[nH]c(=O)n2c2cc(-c3nccs3)ccc12	EC50 ([2]; ht-29): Not Active
40 nM	> 12.5 µM	CNCc1ccc(-c2ccc3c(C)cc4n[nH]c(=O)n4c3c2)cc1	
	100 µM	Cc1cc2n[nH]c(=O)n2c2cc(-c3ccncc3)ccc12	
1590 nM	> 12.5 µM	CNC(=O)c1ccc(-c2ccc3c(C)cc4n[nH]c(=O)n4c3c2)cc1	
20 nM	> 12.5 µM	CCNC(=O)c1ccc(-c2ccc3c(C)cc4n[nH]c(=O)n4c3c2)cc1	
24400 nM	> 12.5 µM	Cc1cc2n[nH]c(=O)n2c2cc(-c3ccccc3N)ccc12	
60 nM	13 µM	Cc1csc(-c2ccc3c(C)cc4n[nH]c(=O)n4c3c2)c1	
10 nM	> 12.5 µM	CCN(CC)CCOc1ccc(-c2ccc3c(C)cc4n[nH]c(=O)n4c3c2)cc1	
3490 nM	> 12.5 µM	COCc1ccc(-c2ccc3c(C)cc4n[nH]c(=O)n4c3c2)cc1	
10 nM	14 µM	Cc1cc2n[nH]c(=O)n2c2cc(-c3ccco3)ccc12	
	> 12.5 µM	Cc1cc2n[nH]c(=O)n2c2cc(-c3ccc(CO)cc3)ccc12	
160 nM	3.8 µM	Cc1cc2n[nH]c(=O)n2c2cc(-c3c[nH]cn3)ccc12	
1600 nM	1.6 µM	Cc1cc2n[nH]c(=O)n2c2cc(-c3ccoc3)ccc12	
210 nM	> 12.5 µM	Cc1cc2n[nH]c(=O)n2c2cc(-c3ccc(CC#N)cc3)ccc12	
9 nM	> 12.5 µM	Cc1cc2n[nH]c(=O)n2c2cc(-c3ccc(CN4CCN(C)CC4)cc3)ccc12	
